According to paper PMC5132201, “Formylated MHC Class Ib Binding Peptides Activate Both Human and Mouse Neutrophils Primarily through Formyl Peptide Receptor 1” (PLoS ONE, 2016):
Square brackets hold non-standard residues; d marks the D form. Ends that are not written are not given here. Peptide text beside a SMILES is read from it. * marks the point of attachment. For = O=C*

What was measured:
human neutrophils = target: T1, human neutrophils (Homo sapiens, UniProt P21462); experiment: NADPH-oxidase activity (superoxide production), isoluminol/HRP chemiluminescence, human neutrophils; type: cell-based; conditions: for Concentration needed to induce full NADPH-oxidase activity: efficacy close to that of fMIFL; for EC50, NADPH-oxidase activity (superoxide production): isoluminol/HRP chemiluminescence, 37°C, peak response as percent of maximal response, mean of 3-4 independent experiments
T1 sequence (P21462 1-350): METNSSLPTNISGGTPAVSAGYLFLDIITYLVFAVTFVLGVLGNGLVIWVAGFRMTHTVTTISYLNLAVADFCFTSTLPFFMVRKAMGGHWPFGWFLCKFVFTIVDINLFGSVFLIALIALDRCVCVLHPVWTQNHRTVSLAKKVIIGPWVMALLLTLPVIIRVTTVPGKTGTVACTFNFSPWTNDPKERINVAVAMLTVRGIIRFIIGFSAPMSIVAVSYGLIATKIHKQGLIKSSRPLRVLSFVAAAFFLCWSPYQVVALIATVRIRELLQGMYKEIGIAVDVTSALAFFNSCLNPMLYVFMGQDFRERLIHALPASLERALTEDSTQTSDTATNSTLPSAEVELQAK

H2-M3 = conditions: crystal structure study; cited from earlier work
Source text: Much less is known about the murine Fprs. It is clear that mouse neutrophils express orthologous of FPR1 and FPR2 (Fpr1 and Fpr2, respectively), but the pharmacological similarities/differences between the human and mouse neutrophil receptors have not been characterized in detail. […] In addition to Fprs, another immune response system, the H2-M3 complex, has evolved in ...

FPR2 = experiment: NADPH-oxidase activity in human neutrophils pre-incubated with the FPR2 antagonist PBP10; type: cell-based; conditions: human neutrophils pre-incubated 5 min at 37°C with 1 μM PBP10 (FPR2 antagonist)
Description: (§1) NADPH-oxidase activity was determined using isoluminol and HRP-enhanced chemiluminescence (CL) systems that allow for the determination of superoxide production. […] The tubes containing 4 U HRP and 10 μg/ml isoluminol together with the cells were equilibrated in the Biolumat for 10 min at 37°C, after which the stimulus (100 μl) was added. The light emission was recorded continuously.
(§2) Neutrophil NADPH-oxidase activity was measured by an isoluminol/HPR chemiluminescence system. […] (10 nM; time for addition indicated by an arrow). […] (1 μM) in the presence or absence (control) of FPR specific inhibitors. Abscissa, Time of study (min); ordinate, superoxide production (in arbitrary light units, cpmx10^-6). […] Data are expressed as mean ± SD from four independent experiments. Abscissa, agonist concentration (M); ordinate, superoxide production (percent of max).

FPR1 = experiment: NADPH-oxidase activity in human neutrophils pre-incubated with the FPR1 antagonist cyclosporine H; type: cell-based; conditions: for Effect of cyclosporine H on the peptide-induced activity: human neutrophils pre-incubated 5 min at 37°C with 1 μM cyclosporine H (FPR1 antagonist); for Preferred receptor: human neutrophils, from cyclosporine H / PBP10 sensitivity
Description: as §1, §2

[1] = target: T2, bone marrow derived mouse neutrophils (Mus musculus, UniProt P33766); conditions: for EC50, NADPH-oxidase activity (superoxide production): TNF-α primed bone marrow derived mouse neutrophils, isoluminol/HRP chemiluminescence, 37°C, peak response as percent of maximal response, mean of 3-4 independent experiments; for Relative potency, mouse versus human neutrophils: comparison of EC50 values of NADPH-oxidase activation in the two species
T2 sequence (P33766 1-364): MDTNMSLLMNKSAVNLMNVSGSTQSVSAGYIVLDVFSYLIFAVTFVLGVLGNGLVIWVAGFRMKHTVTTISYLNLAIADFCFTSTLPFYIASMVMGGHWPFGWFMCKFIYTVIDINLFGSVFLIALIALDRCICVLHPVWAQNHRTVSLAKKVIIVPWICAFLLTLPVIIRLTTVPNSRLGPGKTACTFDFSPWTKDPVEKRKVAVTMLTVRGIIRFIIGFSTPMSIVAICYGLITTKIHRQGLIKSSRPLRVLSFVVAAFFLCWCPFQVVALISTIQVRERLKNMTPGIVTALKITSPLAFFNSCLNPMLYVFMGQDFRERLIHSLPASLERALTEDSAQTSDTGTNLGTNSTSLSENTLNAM

Fpr2^-/- neutrophils = experiment: NADPH-oxidase activity in neutrophils from wild type versus Fpr2-/- mice; type: cell-based; conditions: mouse neutrophils; from WT versus Fpr2-/- cells
Source text: Mice (10–16 weeks of age) were killed by cervical dislocation, the femurs and tibias were removed and freed of soft tissue attachments, and the extreme distal tip of each extremity was cut off. KRG without Ca^2+ and Mg^2+ (KRG-) was forced through the bone by using a 1-ml syringe with a 27-gauge needle. After dispersing cell clumps and removing the debris, the bone marrow granulocytes were isolated according to an earlier described procedure [26] with some modifications. Briefly, cell suspensions in 2 ml of KRG (−) were laid on top of a three-layer Percoll gradient (1.095, 1.085, and 1.070 g/ml). The density of each Percoll solution was verified using density marker beads. […] The cell number and population of bone marrow cells were determined by flow cytometry.
NADPH-oxidase activity was determined using isoluminol and HRP-enhanced chemiluminescence (CL) systems that allow for the determination of superoxide production [27, 28]. […] The light emission was recorded continuously.
Naïve bone marrow cells produce very low level of superoxide upon stimulation and to increase this production, the cells were routinely primed for one hour at RT follow by mouse recombinant TNF-α (10 ng/ml, final concentration) priming for a period of 20 min at 37°C, after which the cells were stimulated and ROS production was determined as described above.

M3 = conditions: high-, medium- and low-binders by induction of M3 expression on P388-M3 transfected cells; cited from earlier work
[2] = target: formyl peptide receptor 1 (human) (human (endogenous in neutrophils)) (UniProt P21462)
[3] = target: formyl peptide receptor 1 (human) (human (endogenous in neutrophils)) (UniProt P21462); remark: listed apart in the source
[4] = target: formyl peptide receptor 1 (mouse) (mouse (endogenous in bone marrow neutrophils)) (UniProt P33766)
[5] = target: formyl peptide receptor 1 (human) (human (endogenous in neutrophils)) (UniProt P21462); remark: listed apart in the source

Molecule: CC[C@H](C)[C@H](NC(=O)[C@H](CC(N)=O)NC(=O)[C@@H](NC(=O)[C@H](Cc1ccccc1)NC(=O)[C@H](Cc1ccc(O)cc1)NC(=O)[C@H](CCSC)NC=O)[C@@H](C)CC)C(=O)N[C@@H](CC(C)C)C(=O)N[C@H](C(=O)N[C@@H](CC(C)C)C(=O)O)[C@@H](C)O (For-MYFINILTL-OH; C-terminus assumed)
- Agonist efficacy (full/partial) (human neutrophils; human neutrophils, compared with fMLF or fMIFL): full agonist
- Concentration needed to induce full NADPH-oxidase activity (human neutrophils; human neutrophils): around 100 nM
- Preference of H2-M3 for binding the N-formylated over the non-formylated peptide (H2-M3): 10^4 fold
- Effect of PBP10 on the peptide-induced activity (FPR2): no inhibition
- Effect of cyclosporine H on the peptide-induced activity (FPR1): inhibited
- Preferred receptor (FPR1): FPR1
- EC50 [1]: 14 nM
- EC50, NADPH-oxidase activity (superoxide production) [1]: low nM range
- Preferred receptor (Fpr2^-/- neutrophils): Fpr1

Molecule: fMLFAAL
- Potency rank among the peptides (human neutrophils; human neutrophils): most potent to activate human neutrophils
- Concentration needed to induce full NADPH-oxidase activity (human neutrophils; human neutrophils): around 100 nM
- M3 binding affinity group (M3): lowest binding affinity
- Relative potency, mouse versus human neutrophils [1]: potencies were reversed

Molecule: fMWYYLF
- M3 binding affinity group (M3): lowest binding affinity
- Relative potency, mouse versus human neutrophils [1]: more potent for murine cells than for human cells
- Potency rank among the peptides ([1]; mouse neutrophils): most potent to activate mouse neutrophils

Molecule: fMFFLDA
- M3 binding affinity group (M3): middle range
- Relative potency, mouse versus human neutrophils [1]: very similar in the two species

Molecule: fMILLV
- Concentration needed to induce full NADPH-oxidase activity (human neutrophils; human neutrophils): around 100 nM
- EC50, NADPH-oxidase activity (superoxide production) (human neutrophils; human neutrophils): low nM range
- M3 binding affinity group (M3): highest M3 affinity
- EC50, NADPH-oxidase activity (superoxide production) [1]: low nM range
- Relative potency, mouse versus human neutrophils [1]: equally potent

Molecule: fMIVIL
- EC50, NADPH-oxidase activity (superoxide production) (human neutrophils; human neutrophils): low nM range
- M3 binding affinity group (M3): highest M3 affinity
- EC50, NADPH-oxidase activity (superoxide production) [1]: low nM range
- Relative potency, mouse versus human neutrophils [1]: order of potency was reversed

Molecule: fGYFINILTL
- Neutrophil activation (human neutrophils): Neither human nor mouse neutrophils could be activated
- Neutrophil activation [1]: Neither human nor mouse neutrophils could be activated

Molecule: MYFINILTL
- NADPH-oxidase activity induced (human neutrophils; human neutrophils, concentrations lower than 1 μM): No activity
- NADPH-oxidase activity induced (human neutrophils; human neutrophils, peptide 1 μM (Fig 1A inset)): very low level of activity
- Effect of PBP10 on the peptide-induced activity (FPR2): inhibited by PBP10
- Effect of cyclosporine H on the peptide-induced activity (FPR1): not by cyclosporine H
- Preferred receptor (FPR1): FPR2
- NADPH-oxidase activity induced [1]: No activity

Molecule: fMIVVLV
- EC50, NADPH-oxidase activity (superoxide production) (human neutrophils; human neutrophils): low nM range
- M3 binding affinity group (M3): highest M3 affinity
- EC50, NADPH-oxidase activity (superoxide production) [1]: low nM range
- Relative potency, mouse versus human neutrophils [1]: more potent on mouse cells than on human cells

Molecule: GYFINILTL
- Neutrophil activation (human neutrophils): Neither human nor mouse neutrophils could be activated
- Neutrophil activation [1]: Neither human nor mouse neutrophils could be activated

Molecule: For-MYFINILTL [f…]
- EC50 of NADPH-oxidase activity (superoxide production, isoluminol/HRP chemiluminescence) in human neutrophils [2]: 5 nM

Molecule: For-MFLIDV [fMFLIDV]
- EC50 of NADPH-oxidase activity in human neutrophils [3]: 100 nM
- EC50 of NADPH-oxidase activity in mouse neutrophils [4]: 1 nM

Molecule: For-[dM]YFINILTL [fmYFINILTL]
- EC50 of superoxide release from human neutrophils [5]: 200 nM
